Results reported in the NIST ThermoML archive (doi:10.1021/je050389b).
± gives the expanded uncertainty stated by the source.

Experiment: xn = mol fraction of the nth substance listed
Settings: Liquid; for viscosity: 100.5 kPa; for mass density: 101 kPa

CCCCCCCC(=O)OCC [ethyl octanoate] + CCO
Settings	mass density, 288.15 K [kg/m3]	mass density, 298.15 K [kg/m3]	mass density, 308.15 K [kg/m3]	mass density, 318.15 K [kg/m3]	viscosity, 288.15 K [mPa·s]	viscosity, 298.15 K [mPa·s]	viscosity, 308.15 K [mPa·s]	viscosity, 318.15 K [mPa·s]
x1 = 0.05	805.14 ± 0.23	796.5 ± 0.23	787.73 ± 0.24	778.81 ± 0.24	1.322 ± 0.019	1.094 ± 0.017	0.915 ± 0.016	0.772 ± 0.015
x1 = 0.1	814.37 ± 0.22	805.66 ± 0.23	796.82 ± 0.23	787.83 ± 0.24	1.299 ± 0.019	1.081 ± 0.017	0.907 ± 0.016	0.773 ± 0.015
x1 = 0.15	822.04 ± 0.22	813.27 ± 0.23	804.39 ± 0.23	795.36 ± 0.24	1.306 ± 0.019	1.087 ± 0.017	0.915 ± 0.016	0.78 ± 0.015
x1 = 0.2	828.52 ± 0.22	819.74 ± 0.23	810.84 ± 0.23	801.79 ± 0.24	1.32 ± 0.019	1.098 ± 0.017	0.926 ± 0.016	0.791 ± 0.015
x1 = 0.25	833.98 ± 0.22	825.17 ± 0.23	816.25 ± 0.23	807.19 ± 0.24	1.337 ± 0.019	1.112 ± 0.017	0.94 ± 0.016	0.804 ± 0.015
x1 = 0.3	838.69 ± 0.22	829.87 ± 0.23	820.94 ± 0.23	811.88 ± 0.24	1.356 ± 0.019	1.129 ± 0.017	0.953 ± 0.016	0.817 ± 0.015
x1 = 0.35	842.77 ± 0.22	833.94 ± 0.23	825.02 ± 0.23	815.96 ± 0.24	1.375 ± 0.019	1.145 ± 0.018	0.969 ± 0.016	0.831 ± 0.015
x1 = 0.4	846.39 ± 0.23	837.55 ± 0.23	828.63 ± 0.23	819.58 ± 0.24	1.398 ± 0.019	1.164 ± 0.018	0.984 ± 0.016	0.844 ± 0.016
x1 = 0.45	849.59 ± 0.23	840.77 ± 0.23	831.86 ± 0.24	822.83 ± 0.24	1.42 ± 0.02	1.183 ± 0.018	1 ± 0.017	0.859 ± 0.016
x1 = 0.5	852.45 ± 0.23	843.63 ± 0.24	834.72 ± 0.24	825.71 ± 0.24	1.443 ± 0.02	1.202 ± 0.018	1.016 ± 0.017	0.873 ± 0.016
x1 = 0.55	855.04 ± 0.24	846.23 ± 0.24	837.34 ± 0.24	828.36 ± 0.25	1.468 ± 0.02	1.222 ± 0.018	1.033 ± 0.017	0.888 ± 0.016
x1 = 0.6	857.4 ± 0.24	848.6 ± 0.24	839.72 ± 0.25	830.77 ± 0.25	1.492 ± 0.02	1.242 ± 0.018	1.05 ± 0.017	0.903 ± 0.016
x1 = 0.65	859.54 ± 0.24	850.77 ± 0.25	841.92 ± 0.25	832.99 ± 0.25	1.517 ± 0.02	1.262 ± 0.018	1.068 ± 0.017	0.917 ± 0.016
x1 = 0.7	861.52 ± 0.25	852.76 ± 0.25	843.94 ± 0.25	835.05 ± 0.26	1.542 ± 0.021	1.284 ± 0.019	1.085 ± 0.017	0.933 ± 0.016
x1 = 0.75	863.4 ± 0.25	854.68 ± 0.26	845.88 ± 0.26	837.01 ± 0.26	1.568 ± 0.021	1.306 ± 0.019	1.103 ± 0.017	0.948 ± 0.016
x1 = 0.8	865.13 ± 0.26	856.41 ± 0.26	847.64 ± 0.26	838.81 ± 0.27	1.595 ± 0.021	1.327 ± 0.019	1.121 ± 0.017	0.964 ± 0.016
x1 = 0.85	866.72 ± 0.26	858 ± 0.27	849.25 ± 0.27	840.47 ± 0.27	1.623 ± 0.021	1.35 ± 0.019	1.14 ± 0.018	0.979 ± 0.016
x1 = 0.9	868.19 ± 0.27	859.5 ± 0.27	850.78 ± 0.27	842.05 ± 0.28	1.649 ± 0.022	1.371 ± 0.019	1.159 ± 0.018	0.996 ± 0.017
x1 = 0.95	869.6 ± 0.28	860.93 ± 0.28	852.26 ± 0.28	843.57 ± 0.28	1.673 ± 0.022	1.391 ± 0.02	1.177 ± 0.018	1.013 ± 0.017
x1 = 1	870.79 ± 0.28	862.15 ± 0.29	853.52 ± 0.29	844.87 ± 0.29	1.697 ± 0.022	1.411 ± 0.02	1.193 ± 0.018	1.027 ± 0.017

CCOC(=O)Cc1ccccc1 [ethyl phenylacetate] + CCO
Settings	mass density, 288.15 K [kg/m3]	mass density, 298.15 K [kg/m3]	mass density, 308.15 K [kg/m3]	mass density, 318.15 K [kg/m3]	viscosity, 288.15 K [mPa·s]	viscosity, 298.15 K [mPa·s]	viscosity, 308.15 K [mPa·s]	viscosity, 318.15 K [mPa·s]
x1 = 0.05	825.34 ± 0.22	816.54 ± 0.22	807.65 ± 0.23	798.61 ± 0.23	1.366 ± 0.019	1.127 ± 0.017	0.947 ± 0.016	0.798 ± 0.015
x1 = 0.1	852 ± 0.21	843.05 ± 0.21	834 ± 0.22	824.82 ± 0.22	1.393 ± 0.019	1.151 ± 0.018	0.967 ± 0.016	0.823 ± 0.015
x1 = 0.15	874.72 ± 0.2	865.65 ± 0.21	856.49 ± 0.21	847.17 ± 0.22	1.447 ± 0.02	1.195 ± 0.018	1.003 ± 0.017	0.855 ± 0.016
x1 = 0.2	894.42 ± 0.2	885.25 ± 0.21	875.99 ± 0.21	866.6 ± 0.22	1.513 ± 0.02	1.244 ± 0.018	1.044 ± 0.017	0.891 ± 0.016
x1 = 0.25	911.6 ± 0.2	902.37 ± 0.21	893.03 ± 0.21	883.57 ± 0.22	1.584 ± 0.021	1.298 ± 0.019	1.089 ± 0.017	0.93 ± 0.016
x1 = 0.3	926.72 ± 0.21	917.42 ± 0.21	908.03 ± 0.21	898.52 ± 0.22	1.663 ± 0.022	1.357 ± 0.019	1.138 ± 0.017	0.971 ± 0.016
x1 = 0.35	940.14 ± 0.21	930.79 ± 0.21	921.36 ± 0.22	911.82 ± 0.22	1.742 ± 0.022	1.418 ± 0.02	1.188 ± 0.018	1.012 ± 0.017
x1 = 0.4	952.17 ± 0.22	942.79 ± 0.22	933.33 ± 0.22	923.77 ± 0.22	1.822 ± 0.023	1.479 ± 0.02	1.239 ± 0.018	1.055 ± 0.017
x1 = 0.45	963.02 ± 0.22	953.61 ± 0.23	944.13 ± 0.23	934.56 ± 0.23	1.904 ± 0.024	1.543 ± 0.021	1.292 ± 0.019	1.099 ± 0.017
x1 = 0.5	972.79 ± 0.23	963.35 ± 0.23	953.86 ± 0.23	944.28 ± 0.24	1.989 ± 0.024	1.61 ± 0.021	1.344 ± 0.019	1.145 ± 0.018
x1 = 0.55	981.67 ± 0.23	972.24 ± 0.24	962.73 ± 0.24	953.16 ± 0.24	2.076 ± 0.025	1.677 ± 0.022	1.399 ± 0.02	1.191 ± 0.018
x1 = 0.6	989.81 ± 0.24	980.37 ± 0.24	970.86 ± 0.24	961.29 ± 0.24	2.164 ± 0.026	1.747 ± 0.022	1.455 ± 0.02	1.238 ± 0.018
x1 = 0.65	997.27 ± 0.25	987.81 ± 0.25	978.31 ± 0.25	968.75 ± 0.25	2.255 ± 0.027	1.821 ± 0.023	1.513 ± 0.02	1.286 ± 0.019
x1 = 0.7	1004.13 ± 0.26	994.68 ± 0.26	985.19 ± 0.26	975.65 ± 0.26	2.348 ± 0.028	1.895 ± 0.024	1.571 ± 0.021	1.336 ± 0.019
x1 = 0.75	1010.49 ± 0.27	1001.03 ± 0.27	991.56 ± 0.27	982.04 ± 0.27	2.446 ± 0.029	1.974 ± 0.024	1.635 ± 0.022	1.387 ± 0.02
x1 = 0.8	1016.36 ± 0.28	1006.93 ± 0.28	997.48 ± 0.28	987.98 ± 0.28	2.555 ± 0.03	2.053 ± 0.025	1.702 ± 0.022	1.441 ± 0.02
x1 = 0.85	1021.84 ± 0.3	1012.41 ± 0.29	1002.97 ± 0.29	993.53 ± 0.29	2.672 ± 0.031	2.14 ± 0.026	1.772 ± 0.023	1.498 ± 0.02
x1 = 0.9	1026.95 ± 0.31	1017.55 ± 0.31	1008.14 ± 0.3	998.73 ± 0.3	2.79 ± 0.032	2.23 ± 0.027	1.847 ± 0.023	1.558 ± 0.021
x1 = 0.95	1031.75 ± 0.33	1022.36 ± 0.32	1012.99 ± 0.32	1003.61 ± 0.31	2.919 ± 0.034	2.33 ± 0.028	1.914 ± 0.024	1.605 ± 0.021
x1 = 1	1036.35 ± 0.34	1026.96 ± 0.33	1017.6 ± 0.33	1008.26 ± 0.33	3.002 ± 0.035	2.384 ± 0.028	1.948 ± 0.024	1.624 ± 0.022
